The results in this text go back to EP0908457B1, “3-(1,2-benzisothiazol- and isoxazol-5-Y1)-2,4(1H,3H)-pyrimidinedione or thione and 3-(1,2-benzisothiazol- and isoxazol-5-y1)-4(3H)-pyrimidinone or thione herbicidal agents” (BASF AKTIENGESELLSCHAFT, priority 1997, dated 1999).

Format in all cases: in vivo
In one test the test system is Sagittaria pygmaea, L. In words: Preemergence weed control under flooded paddy conditions, SAGPY (Arrowhead (Pygmaea)). Particulars: flooded paddy; for SAGPY: preemergence weeds, herbicidal effect rating 0-9, three to four weeks after treatment; for SAGPY herbicidal rating: preemergence, rated three to four weeks after treatment.
In test [1] the test system is Echinochloa oryzoides (Ard.) Fritsch. The test is described as follows: Preemergence weed control under flooded paddy conditions, ECHORC (Watergrass (Calif.)). Particulars: flooded paddy; for ECHORC: preemergence weeds, herbicidal effect rating 0-9, three to four weeks after treatment; for ECHORC herbicidal rating: preemergence, rated three to four weeks after treatment.

The test system of test [2] is Cyperus serotinus, Rottb. In words: Preemergence weed control under flooded paddy conditions, CYPSE (Flatsedge). As to conditions: for CYPSE: preemergence weeds, herbicidal effect rating 0-9, three to four weeks after treatment; for CYPSE herbicidal rating: preemergence, rated three to four weeks after treatment.
Test [3] deals with Monochoria vaginalis, Presl. In words: Preemergence weed control under flooded paddy conditions, MOOVA (Monochoria). Particulars: flooded paddy; for MOOVA: preemergence weeds, herbicidal effect rating 0-9, three to four weeks after treatment; for MOOVA herbicidal rating: preemergence, rated three to four weeks after treatment.
The subject of the next test is Cyperus iria. The test is described as follows: Preemergence weed control under flooded paddy conditions, CYPIR (Rice Flatsedge). Particulars: flooded paddy; for CYPIR: preemergence weeds, herbicidal effect rating 0-9, three to four weeks after treatment; for CYPIR herbicidal rating: preemergence, rated three to four weeks after treatment.

Regarding `COc1ccc(C)cc1-c1nsc2cc(Cl)c(-n3c(=O)cc(C(F)(F)F)n(C)c3=O)cc12` [Example 442, 2,4(1H,3H)-Pyrimidinedione, 3-[6-chloro-3-(6-methoxy-m-tolyl)-1,2-benzisothiazol-5-yl]-1-methyl-6-(trifluoromethyl)-], the SAGPY in the test on Sagittaria pygmaea, L. (0.0320 kg/ha) is recorded as 1.3; in the test with Sagittaria pygmaea, L. (0.0620 kg/ha) it was 1.7; with Sagittaria pygmaea, L. (0.1250 kg/ha), 2.0; in the test on Sagittaria pygmaea, L. (0.2500 kg/ha), 4.0. Besides, the ECHORC stood at 8.3 in test [1] (0.0320 kg/ha), 9.0 in test [1] (0.0620 kg/ha), 9.0 in test [1] (0.1250 kg/ha) and 9.0 in test [1] (0.2500 kg/ha). Besides, the CYPSE in test [2] (0.0320 kg/ha) stood at 0.0; in test [2] (0.0620 kg/ha), 0.0; in test [2] (0.1250 kg/ha), 0.0; in test [2] (0.2500 kg/ha), 4.5. Moreover, the MOOVA was 6.0 in test [3] (0.0320 kg/ha), 8.3 in test [3] (0.0620 kg/ha), 9.0 in test [3] (0.1250 kg/ha) and 9.0 in test [3] (0.2500 kg/ha). Also, the CYPIR in the test with Cyperus iria (0.0320 kg/ha) is 4.3; in the test on Cyperus iria (0.0620 kg/ha), 6.3; in the test with Cyperus iria (0.1250 kg/ha), 8.7; with Cyperus iria (0.2500 kg/ha), 9.0.

Take “2,4(1H,3H)-Pyrimidinedione, 3-[3-(hydroxymethyl)-1,2-benzisothiazol-5-yl]-1-methyl-6-(trifluoromethyl)-, chlorophenylacetate (ester) [Example 504]”: the SAGPY herbicidal rating with Sagittaria pygmaea, L. (0.0320 kg/ha) is recorded as 0.0; in the test with Sagittaria pygmaea, L. (0.2500 kg/ha) it was 7.0. Moreover, the ECHORC herbicidal rating in test [1] (0.0320 kg/ha) was 2.0; in test [1] (0.0620 kg/ha), 3.0; in test [1] (0.1250 kg/ha), 6.0; in test [1] (0.2500 kg/ha), 7.0. The CYPSE herbicidal rating in test [2] (0.0320 kg/ha), in test [2] (0.0620 kg/ha) and in test [2] (0.1250 kg/ha) was 0.0 in each case. In addition, the MOOVA herbicidal rating in test [3] (0.0320 kg/ha) amounted to 6.0; in test [3] (0.0620 kg/ha), 8.0; in test [3] (0.1250 kg/ha) it was 9.0; in test [3] (0.2500 kg/ha), 9.0. In addition, the CYPIR herbicidal rating in the test on Cyperus iria (0.0320 kg/ha) came to 4.0; in the test with Cyperus iria (0.0620 kg/ha) it was 7.0; with Cyperus iria (0.1250 kg/ha), 9.0; in the test on Cyperus iria (0.2500 kg/ha), 9.0.

`Cn1c(C(F)(F)F)cc(=O)n(-c2ccc3snc(COC(=O)c4cc(Cl)nc(Cl)c4)c3c2)c1=O` [Example 474, 2,4(1H,3H)-Pyrimidinedione, 3-[3-(hydroxymethyl)-1,2-benzisothiazol-5-yl]-1-methyl-6-(trifluoromethyl)-, 2,6-dichloroisonicotinate (ester)]: the SAGPY herbicidal rating in the test on Sagittaria pygmaea, L. (0.0320 kg/ha) is recorded as 0.0; in the test on Sagittaria pygmaea, L. (0.0620 kg/ha), 0.0; with Sagittaria pygmaea, L. (0.1250 kg/ha) it was 0.0; in the test on Sagittaria pygmaea, L. (0.2500 kg/ha) it was 0.0. For the same molecule, the ECHORC herbicidal rating in test [1] (0.0320 kg/ha), in test [1] (0.0620 kg/ha), in test [1] (0.1250 kg/ha) and in test [1] (0.2500 kg/ha) was 0.0 throughout. In addition, the CYPSE herbicidal rating in test [2] (0.0320 kg/ha), in test [2] (0.0620 kg/ha), in test [2] (0.1250 kg/ha) and in test [2] (0.2500 kg/ha) was 0.0 throughout. Moreover, the MOOVA herbicidal rating was 2.0 in test [3] (0.0320 kg/ha), 3.0 in test [3] (0.0620 kg/ha), 7.0 in test [3] (0.1250 kg/ha) and 9.0 in test [3] (0.2500 kg/ha). The CYPIR herbicidal rating came out at 2.0 in the test on Cyperus iria (0.0320 kg/ha), 5.0 in the test on Cyperus iria (0.0620 kg/ha), 4.0 in the test with Cyperus iria (0.1250 kg/ha) and 6.0 with Cyperus iria (0.2500 kg/ha).
